# Structures can show the parent of a compound that is named as a salt.
# Tests used:
# [1] = tested on: MIA PaCa-2 cells; assay: MIA PaCa2 cell-based assay (1,536-well high-content imaging ALDEFLUOR assay); parameters: species or system human; settings: Homo sapiens, 0.5 h, ALDEFLUOR BAAA substrate 500 nM, 30 minutes
# In short: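 MIA PaCa-2 cells (1,000/well), plated overnight, given BAAA substrate (500 nM) plus Hoechst 33342 (0.5 nM), then compound (16-point, 1.4 nM–47.8 μM final; 0.5% DMSO). After 30 min at 37° C, ALDH activity imaged by high-content microscopy as BAA-retaining (FITC) cells versus Hoechst-stained nuclei.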
# [2] = target: T1, ALDH1A1 enzyme (Homo sapiens, UniProt P00352); assay: ALDH1A1 enzymatic assay (in vitro); assay type: biochemical; settings: ALDH1A1 enzyme 20 nM, NAD+ 1 mM, propionaldehyde 80 μM; read-out: ALDH1A1 IC50
# T1 sequence (P00352 1-501): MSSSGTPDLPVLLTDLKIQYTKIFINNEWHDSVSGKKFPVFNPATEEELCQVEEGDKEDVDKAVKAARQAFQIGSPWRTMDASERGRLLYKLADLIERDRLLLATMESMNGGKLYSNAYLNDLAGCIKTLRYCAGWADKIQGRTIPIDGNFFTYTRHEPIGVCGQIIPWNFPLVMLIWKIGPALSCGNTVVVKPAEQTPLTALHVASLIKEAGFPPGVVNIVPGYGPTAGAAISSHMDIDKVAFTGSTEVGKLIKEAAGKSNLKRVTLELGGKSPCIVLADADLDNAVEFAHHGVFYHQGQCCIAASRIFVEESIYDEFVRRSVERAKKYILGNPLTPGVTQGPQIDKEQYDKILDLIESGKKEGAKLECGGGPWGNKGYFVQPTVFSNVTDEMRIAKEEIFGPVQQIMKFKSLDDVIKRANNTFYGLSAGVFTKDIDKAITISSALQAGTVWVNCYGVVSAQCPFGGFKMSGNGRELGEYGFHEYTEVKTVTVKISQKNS
# In short: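 ALDH1A1 (20 nM final) in 100 mM HEPES pH 7.5, 0.01% Tween 20 was preincubated 15 min at RT with compound (968 pM–57.2 μM final), then started with 1 mM NAD+ and 80 μM propionaldehyde. NADH fluorescence (ex 340/em 450 nm) followed kinetically for 10 min; change normalized to no-inhibitor and no-enzyme controls for percent inhibition and curve fitting.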
Structure (SMILES),IC50 [1] [nM],IC50 [2] [nM]
"CC(=O)N1CCN(C(=O)c2cnc3ccc(F)cc3c2N2CCC3(CC2)OCCO3)CC1 [Example 51, 1-(4-(6-fluoro-4-(1,4-dioxa-8-azaspiro[4.5]decan-8-yl)quinoline-3-carbonyl)piperazin-1-yl)ethanone]",> 10000,< 500
"COc1cc2ncc(C(=O)N3CCN(S(=O)(=O)C4CC4)CC3)c(N3CCC(C)(C#N)CC3)c2cc1OC [Example 114, 1-(3-(4-(cyclopropylsulfonyl)piperazine-1-carbonyl)-6,7-dimethoxyquinolin-4-yl)-4-methylpiperidine-4-carbonitrile]",1000 to 10000,< 500
"COc1ccc2ncc(C(=O)N3CCN(C(=O)C4CC4)CC3)c(N3CCN(C(C)=O)CC3)c2c1 [Example 23, 1-(4-(3-(4-(cyclopropanecarbonyl)piperazine-1-carbonyl)-6-methoxyquinolin-4-yl)piperazin-1-yl)ethanone]",> 10000,> 10000
"COc1ccc2c(N3CCC(C)(C#N)CC3)c(C(=O)N3CCN(C(C)=O)CC3)cnc2c1 [Example 104, 1-(3-(4-acetylpiperazine-1-carbonyl)-7-methoxyquinolin-4-yl)-4-methylpiperidine-4-carbonitrile]",> 10000,< 500
"CC(C)C(=O)N1CCN(C(=O)c2cnc3ccccc3c2N2CCC(C)(C#N)CC2)CC1 [Example 95, 1-(3-(4-isobutyrylpiperazine-1-carbonyl)quinolin-4-yl)-4-methylpiperidine-4-carbonitrile]",> 10000,< 500
"COc1cc2ncc(C(=O)N3CCN(C(=O)C4CC4)CC3)c(N3CCC(C)(C#N)CC3)c2cc1OC [Example 109, 1-(3-(4-(cyclopropanecarbonyl)piperazine-1-carbonyl)-6,7-dimethoxyquinolin-4-yl)-4-methylpiperidine-4-carbonitrile]",1000 to 10000,< 500
"N#CC1(c2ccccc2)CCN(c2c(C(=O)Nc3cnn(CC(=O)NC4CC4)c3)cnc3ccc(F)cc23)CC1 [Cpd. 347, 4-(4-cyano-4-phenylpiperidin-1-yl)-N-(1-(2-(cyclopropylamino)-2-oxoethyl)-1H-pyrazol-4-yl)-6-fluoroquinoline-3-carboxamide]",< 500,< 500
"COc1ccc2c(N3CCC(C)(C#N)CC3)c(C(=O)N3CCN(C(=O)C(C)C)CC3)cnc2c1 [Example 103, 1-(3-(4-isobutyrylpiperazine-1-carbonyl)-7-methoxyquinolin-4-yl)-4-methylpiperidine-4-carbonitrile]",1000 to 10000,< 500
"N#CC1(c2ccc(-c3c(C(=O)N4CC5(CC(O)C5)C4)cnc4ccc(F)cc34)cc2)CC1 [Cpd. 335, 1-(4-(6-fluoro-3-(6-hydroxy-2-azaspiro[3.3]heptane-2-carbonyl)quinolin-4-yl)phenyl)cyclopropane-1-carbonitrile]",1000 to 10000,< 500
"CS(=O)(=O)N1CCN(C(=O)c2cnc3ccc(F)cc3c2-c2ccc(/C(C#N)=C/C3CC3)cc2)CC1 [Cpd. 357, (Z)-3-cyclopropyl-2-(4-(6-fluoro-3-(4-(methylsulfonyl)piperazine-1-carbonyl)quinolin-4-yl)phenyl)acrylonitrile]",< 500,< 500
"N#CC1(c2ccc(-c3c(C(=O)N[C@H]4C[C@H](O)C4)cnc4ccc(F)cc34)cc2)CC1 [Cpd. 336, 4-(4-(1-cyanocyclopropyl)phenyl)-6-fluoro-N-((1R,3R)-3-hydroxycyclobutyl)quinoline-3-carboxamide]",500 to 1000,< 500
"CCNC(=O)N1CCN(C(=O)c2cnc3ccc(Cl)cc3c2N2CCC(C)(C#N)CC2)CC1 [Example 121, 4-(6-chloro-4-(4-cyano-4-methylpiperidin-1-yl)quinoline-3-carbonyl)-N-ethylpiperazine-1-carboxamide]",1000 to 10000,< 500
"N#CC1(c2ccccc2)CCN(c2c(C(=O)Nc3cnn(CCO)c3)cnc3ccc(F)cc23)CC1 [Cpd. 345, 4-(4-cyano-4-phenylpiperidin-1-yl)-6-fluoro-N-(1-(2-hydroxyethyl)-1H-pyrazol-4-yl)quinoline-3-carboxamide]",< 500,< 500
"CC1(C#N)CCN(c2c(C(=O)N3CCN(C(=O)C4CC4)CC3)cnc3ccc(Cl)cc23)CC1 [Example 117, 1-(6-chloro-3-(4-(cyclopropanecarbonyl)piperazine-1-carbonyl)quinolin-4-yl)-4-methylpiperidine-4-carbonitrile]",1000 to 10000,< 500
"COc1ccc2ncc(C(=O)N3CCN(C(=O)C4CC4)CC3)c(N3CCC4(CCCC4)CC3)c2c1 [Example 17, (4-(cyclopropanecarbonyl)piperazin-1-yl)(6-methoxy-4-(8-azaspiro[4.5]decan-8-yl)quinolin-3-yl)methanone, TFA]",1000 to 10000,< 500

# Other lines, results leading:
IC50 [1] [nM],IC50 [2] [nM],Structure (SMILES)
> 10000,1000 to 10000,"O=C(c1cnc2ccc(F)cc2c1N1CCC(CO)(c2ccccc2)CC1)N1CCN(C(=O)C2CC2)CC1 [Example 255, (4-(cyclopropanecarbonyl)piperazin-1-yl)(6-fluoro-4-(4-(hydroxymethyl)-4-phenylpiperidin-1-yl)quinolin-3-yl)methanone]"
< 500,< 500,"CN(C)S(=O)(=O)N1CCN(C(=O)c2cnc3c(F)cc(F)cc3c2N2CCC(C)(C#N)CC2)CC1 [Example 167, 4-(4-(4-cyano-4-methylpiperidin-1-yl)-6,8-difluoroquinoline-3-carbonyl)-N,N-dimethylpiperazine-1-sulfonamide]"
500 to 1000,< 500,"CS(=O)(=O)N1CCN(C(=O)c2cnc3ccc(F)cc3c2N2CCC3(CCCC3=O)CC2)CC1 [Example 251, 8-(6-fluoro-3-(4-(methylsulfonyl)piperazine-1-carbonyl)quinolin-4-yl)-8-azaspiro[4.5]decan-1-one]"
< 500,< 500,"CS(=O)(=O)C1CCN(C(=O)c2cnc3ccsc3c2N2CCC(C#N)(c3ccccc3)CC2)CC1 [Example 293, 1-(6-(4-(methylsulfonyl)piperidine-1-carbonyl)thieno[3,2-b]pyridin-7-yl)-4-phenylpiperidine-4-carbonitrile]"
1000 to 10000,< 500,"CN(C)C(=O)N1CCN(C(=O)c2cnc3cc(F)c(F)cc3c2N2CCC(C)(C#N)CC2)CC1 [Example 184, 4-(4-(4-cyano-4-methylpiperidin-1-yl)-6,7-difluoroquinoline-3-carbonyl)-N,N-dimethylpiperazine-1-carboxamide]"
1000 to 10000,< 500,"C[C@H]1CN(C(=O)c2cnc3ccc(F)cc3c2N2CCC(C)(C#N)CC2)CCN1C(=O)C1CC1 [Example 227, (S)-1-(3-(4-(cyclopropanecarbonyl)-3-methylpiperazine-1-carbonyl)-6-fluoroquinolin-4-yl)-4-methylpiperidine-4-carbonitrile]"
< 500,< 500,"Cc1ccc(C2(C#N)CCN(c3c(C(=O)N4CCN(S(C)(=O)=O)CC4)cnc4ccc(F)cc34)CC2)c(F)c1 [Example 277, 1-(6-fluoro-3-(4-(methylsulfonyl)piperazine-1-carbonyl)quinolin-4-yl)-4-(2-fluoro-4-methylphenyl)piperidine-4-carbonitrile]"
1000 to 10000,< 500,"CS(=O)(=O)N1CCN(C(=O)c2cnc3ccc(F)cc3c2-c2ccc(CC#N)cc2)CC1 [Example 212, 2-(4-(6-fluoro-3-(4-(methylsulfonyl)piperazine-1-carbonyl)quinolin-4-yl)phenyl)acetonitrile]"

# Source: patent US11795177B2, “Substituted quinoline analogs as aldehyde dehydrogenase 1A1 (ALDH1A1) inhibitors” (THE UNITED STATES OF AMERICA, AS REPRESENTED BY THE …, priority 2017, dated 2023)
